Data on seven compounds can be found in patent US9592226B2, “Solenopsin and derivatives, therapeutic compositions; and methods related thereto” (priority 2013, dated 2017).

“Also recorded” adds a separate entry of the source.

The subject of test [1] is A375 (human melanoma) cells. The experiment in a line: Proliferation study, A375 cells (Coulter Counter). The following applies: 10 μM, 24 h, cell count vs DMSO. The test is classed as cell-based. On the procedure:
50,000 cells/well were plated and treated for 24 h with each compound. The first DMSO bar in each chart serves as control for (+)-solenopsin A, (−)-solenopsin A, and ceramide C2. The second DMSO bar is the control for S11-S15.
(§1) Different analogs of solenopsin were synthesized (FIG. 1) in order to explore their structure-activity relationships. The aliphatic side chains of S14 and S13 are 4 and 8 carbons longer compared to solenopsin, respectively. S11 has an 8-carbon longer side chain, as well as an extra methyl group in the 4-position of the piperidine ring. S15 has an 11-carbon side chain similar to solenopsin, but the first carbon in the side chain is hydroxylated. Also, S15 lacks the methyl group in the 2-position of the piperidine ring. All the analogs together with (−)- and (+)-solenosin A, and the isomeric mixture of the two cis-isomers of solenopsin (S12) were tested, at 10 μM, on two different human melanoma cell lines (A375 and A2058) and one murine angiosarcoma cell line (SVR) (FIG. 2). The A375 and A2058 melanoma cell lines express mutant Braf and the SVR murine angiosarcoma cell line expresses mutant Hras. One important difference between the two human melanoma cell lines is the A2058 is PTEN null, whereas A375 is not.
(§2) A375 (human melanoma), A2058 (human melanoma), or SVR (murine angiosarcoma) cells were plated at a concentration of 50,000 cells/well. The cells were treated with 10 μM of (−)-solenopsin A, (+)-solenopsin A, or analogs (S11-S15) for 24 hours, at which point cells were counted with a Coulter Counter.

Test [2] relates to SVR (murine angiosarcoma) cells. Description: Proliferation study, SVR cells (Coulter Counter). The note with it: 10 μM, 24 h, cell count vs DMSO. It counts as cell-based.
Excerpt: as §1, §2

The next test has as its system p-pMAPK 44/42. The experiment in a line: Western blot p-pMAPK 44/42 in SVR cells. The test is classed as cell-based, murine. The following applies: 10 μM (ceramide C2 20 μM), 24 h. The protocol: (§3) A375, SVR, and A2058 cells were treated for 24 h with ceramide C2 (20 μM), (+)-solenopsin A ((+) Sol. A, 10 μM), (−)-solenopsin A ((−) Sol. A, 10 μM), or solenopsin analogs S11-S15 (10 μM). The expression of p-AKT S473, p-pMAPK 44/42, and B-actin was determined by western blotting.
(§4) A375, SVR, and A2058 cells treated with solenopsin A and analogs were evaluated by Western-blotting with pAkt S473, p-pMAPK 44/42, and β-actin (FIG. 5). Although the proliferation results were more or less similar in all three cell lines, the protein expressions varied. In A375's an up-regulation of pAkt S473 and p-pMAPK 44/42 could be seen for (+)- and (−)-solenopsin A, as well as for analogs S12-S15 (FIG. 5). […] The results for cell line A2058 is similar to A375, i.e. there is an up-regulation of p-Akt S473 and p-pMAPK 44/42 in the treatment groups compared to the control. […] Both human melanoma cell lines (A375 and A2058) are reactive oxygen driven tumors, whereas the murine angiosarcoma cell line (SVR) is not. […]
(§5) Cells were grown in T-25 flasks until 80% confluent followed by treatment for 24 h with 10 μM DMSO solutions of (+)-solenopsin A, (−)-solenopsin A, or analogs (S11-S15). Sample aliquots normalized for protein quantities were size fractionated by 10% SDS-PAGE, and the proteins were transferred to a PVDF membrane. […]
A general note: In western blotting, separated proteins are transferred to a membrane and probed.

Test [3] relates to A2058 (human melanoma) cells. Description: Proliferation study, A2058 cells (Coulter Counter). The note with it: 10 μM, 24 h, cell count vs DMSO. It counts as cell-based.
Excerpt: as §1, §2

For a further test, the system named is UM-SCC1A cells. The experiment in a line: Oxygen consumption rate (Seahorse) in UM-SCC1A cells. The following applies: 10 μM, 24 h. The test is classed as cell-based, human. On the procedure:
UM-SCC1A cells were plated 15,000/well and treated for 24 h with 10 μM of (+)-solenopsin A ((+) Sol. A), (−)-solenopsin A ((−) Sol. A), and solenopsin analogs S11-S15. Oxygen consumption rate (OCR) was measured as pmoles O2/minute using a Seahorse Biosciences instrument. Data shown are an average of three experiments±s.d.
At least not in Braf mutated cell lines, such as A375 and A2058. One possibility is that solenopsin, like ceramide, may also localize to mitochondria, and cause mitochondrial induced cell death. Cellular oxygen consumption rate can be indicative of mitochondrial function. Therefore, to investigate if solenopsin A and analogs do alter mitochondrial function, UM-SCC1A (human head and neck SCC) cells were then treated with 10 μM compound or the equivalent amount of DMSO and incubated for 24 hours. A SeaHorse Bioscience instrument was used to measure the oxygen consumption rate (OCR). […] Mitophagy can be one reason for decreased OCR, but further assays are needed to confirm the cause for the observed differences.
UM-SCC1A cells were plated 15,000 per well in 200 μl DMEM supplemented with 10% FBS and 1% penicillin-streptomycin in each well of a 96-well Seahorse plate and incubated overnight at 37° C. with 5% CO2. Cells were then treated with 10 μM compound or the equivalent amount of DMSO and incubated for 24 hours. OCR was measured as pmoles O2/minute using the Seahorse Biociences instrument per manufacturer's instructions. Protein amounts in each well were then quantified using the Thermo Scientific Pierce Protein Assay, per manufacturer's instructions.

In a further test the test system is p-Akt S473. Description: Western blot p-Akt S473 in SVR cells. The test is classed as cell-based, murine. The following applies: 10 μM (ceramide C2 20 μM), 24 h. On the procedure: as §3, §4, §5
Test [4] addresses neuronal nitric oxide synthase (Homo sapiens, UniProt P29475). The note with it: Yi et al., Int J Toxicol 2003; cited from earlier work.
The subject of a further test is PTEN. Description: Lipid raft fractionation (sucrose density gradient), PTEN translocation to membrane rafts in A375 cells. It counts as cell-based, human. The following applies: 50 μM (positive control), 1 h. The protocol:
A375 cells were treated for 1 h with: ceramide C2 (50 μM), (+)-solenopsin A ((+) Sol. A, 20 μM), (−)-solenopsin A ((−) Sol. A, 20 μM), or solenopsin analogs S11-S15 (20 μM). Cells were lysed in 0.5% Brij96 in TNEV, loaded onto the 5-40% sucrose gradient, and centrifuged at 34,000 rpm at 4° C. for 22 h. Thirteen fractions were collected, starting from the top of the tube. Equal volumes of each fraction were analyzed by Western blotting with caveolin and PTEN antibodies. Caveolin serves a positive control for which fractions that contain lipid rafts.
Caveolin was used as a positive marker to identify lipid raft fractions and an anti-PTEN antibody was used to identify PTEN-containing fractions (FIG. 3). A375 cells were treated for 1 h with 20 μM of (+)-solenopsin, (−)-solenopsin, or analogs S11-S15. […]
Cells were grown in T-75 flasks until 80% confluent followed by treatment for 1 h with 20 μM DMSO solutions of (+)-solenopsin A, (−)-solenopsin A, analogs (S12-S15), or 50 μM of ceramide C2 in DMSO. […] Equal volumes of each fraction were analyzed by Western blot with relevant antibodies.
as §5

Another test relates to A375 cells. The experiment in a line: Superoxide (ROS) by DHE fluorescence, A375 cells. It counts as cell-based, human. The following applies: 10 μM, 24 h. The protocol: Cells were treated for 24 h with 10 μM of (+)-solenopsin A ((+) Sol. A), (−)-solenopsin A ((−) Sol. A), and solenopsin analogs S11-S15. Cells were trypsined and incubated for 10 min in 10 μM dihydroethedium (DHE), followed by analysis with a FACScan flow cytometer. Data shown are an average of three experiments±s.d.
A375 or SVR cells were plated in 6 cm dishes. After cells had adhered to the plates, they were treated for 24 h with 10 μM DMSO solutions of (+)-solenopsin A, (−)-solenopsin A, or analogs (S11-S15) at which time the media was aspirated. Cells were washed with 2 mL PBS then treated with 0.05% trypsin/0.53 mM EDTA (Fisher) for 3 min at RT. Cells were collected and then pelleted at 600 g for 2 min. The supernatant was aspirated and the cells were suspended in 10 uM dihydroethidium (DHE) (Life Technologies) and incubated for 10 min in the dark at RT while shaking Following this incubation, cells were kept until counting on a Becton Dickinson FACScan flow cytometer. 10,000 cells were counted and analyzed by FlowJo 7.6.4. Mean values of DHE fluorescence intensity were compared.

A further test has as its system angiogenesis. The following applies: Arbiser et al., Blood 2007; cited from earlier work.
The next test relates to phosphoinositol-3 kinase. The note with it: p53 deficient renal cell carcinoma cell line 786-O; Arbiser et al. 2007; cited from earlier work.
In the next test the test system is Pseudomonas aeruginosa. The following applies: Park et al. 2008; cited from earlier work.

neuronal nitric oxide synthase, sequence (P29475 whole entry): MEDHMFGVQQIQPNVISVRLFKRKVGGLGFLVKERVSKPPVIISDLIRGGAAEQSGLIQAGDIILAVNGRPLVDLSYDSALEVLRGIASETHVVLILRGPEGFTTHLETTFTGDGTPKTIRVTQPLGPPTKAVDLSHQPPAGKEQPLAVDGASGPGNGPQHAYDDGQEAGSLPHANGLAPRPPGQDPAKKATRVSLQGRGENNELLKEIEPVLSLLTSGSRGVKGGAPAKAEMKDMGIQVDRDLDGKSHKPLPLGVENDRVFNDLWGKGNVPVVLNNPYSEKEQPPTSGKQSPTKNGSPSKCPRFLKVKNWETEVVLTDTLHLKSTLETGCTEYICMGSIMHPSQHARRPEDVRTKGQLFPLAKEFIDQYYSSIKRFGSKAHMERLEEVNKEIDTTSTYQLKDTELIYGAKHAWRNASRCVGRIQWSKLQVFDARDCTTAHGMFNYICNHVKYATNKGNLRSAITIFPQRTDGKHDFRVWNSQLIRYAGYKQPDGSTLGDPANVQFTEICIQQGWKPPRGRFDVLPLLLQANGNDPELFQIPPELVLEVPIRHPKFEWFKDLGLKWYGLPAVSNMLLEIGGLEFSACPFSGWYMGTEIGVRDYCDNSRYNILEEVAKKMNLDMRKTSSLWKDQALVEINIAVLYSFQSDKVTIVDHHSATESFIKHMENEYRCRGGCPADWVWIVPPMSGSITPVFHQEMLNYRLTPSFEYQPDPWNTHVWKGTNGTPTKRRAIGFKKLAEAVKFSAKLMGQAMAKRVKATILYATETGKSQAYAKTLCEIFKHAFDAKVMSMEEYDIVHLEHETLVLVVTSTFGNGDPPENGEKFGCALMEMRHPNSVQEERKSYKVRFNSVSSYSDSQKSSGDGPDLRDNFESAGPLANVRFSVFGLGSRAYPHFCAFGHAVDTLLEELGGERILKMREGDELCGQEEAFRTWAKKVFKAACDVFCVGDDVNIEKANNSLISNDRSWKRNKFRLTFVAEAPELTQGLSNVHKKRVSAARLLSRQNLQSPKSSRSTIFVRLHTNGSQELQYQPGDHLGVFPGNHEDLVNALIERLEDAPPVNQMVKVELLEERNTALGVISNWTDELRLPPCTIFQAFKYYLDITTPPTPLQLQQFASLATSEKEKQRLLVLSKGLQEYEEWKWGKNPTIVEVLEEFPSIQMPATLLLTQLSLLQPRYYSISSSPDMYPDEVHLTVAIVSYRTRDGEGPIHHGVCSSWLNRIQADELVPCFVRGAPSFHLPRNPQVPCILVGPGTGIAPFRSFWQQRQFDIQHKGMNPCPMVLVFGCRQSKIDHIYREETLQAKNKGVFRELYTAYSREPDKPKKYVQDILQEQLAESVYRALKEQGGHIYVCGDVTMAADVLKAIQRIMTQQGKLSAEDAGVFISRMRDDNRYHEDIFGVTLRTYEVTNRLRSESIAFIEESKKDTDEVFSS

Take `CCCCCCCCCCC(O)C1CCCCN1` (centres unmarked) [Compound S15, 1-(Piperidin-2-yl)undecan-1-ol]: the antiproliferative effect result was “equally as effective as solenopsin A; also recorded: potent antiproliferative effect” in [1], “equally as effective as solenopsin A; also recorded: potent antiproliferative effect” in test [2] and “equally as effective as solenopsin A; also recorded: potent antiproliferative effect; also recorded: most potent analog” in [3]. The “expression of p-pMAPK 44/42” value in the test on p-pMAPK 44/42 is “down-regulated”. The “oxygen consumption rate (OCR) compared to DMSO control” value in the test on UM-SCC1A cells is reported as “drastically reduced OCR”. Also, the “expression of p-Akt S473” value in the test with p-Akt S473 was “down-regulated”.
Take `CCCCCCCCCCCC1CCCC(C)N1` (centres unmarked) [isosolenopsin A, 2-methyl-6-nundecylpiperidine]: the “inhibition of neuronal nitric oxide synthase” value in test [4] was “potent and selective inhibitor”.
With `CCCCCCCCCCCCCCCC1CCCC(C)N1` (centres unmarked) [Compound S14, 2-Methyl-6-pentadecylpiperidine], the antiproliferative effect entry was “equally as effective as solenopsin A; also recorded: most potent analog” in test [1]; “equally as effective as solenopsin A; also recorded: most potent analog” in test [2]; “equally as effective as solenopsin A; also recorded: approximately equally as potent as (−)- and (+)-solenopsin A” in [3]. Further, the “expression of p-pMAPK 44/42” value in the test on p-pMAPK 44/42 was “down-regulated”. Further, in the test on UM-SCC1A cells, the “oxygen consumption rate (OCR) compared to DMSO control” value is “drastically reduced OCR”. Also, the “expression of p-Akt S473” value in the test with p-Akt S473 is reported as “down-regulated”.
Consider `CCCCCCCCCCCC1CCCC(C)N1` (centres unmarked) [Compound S12, 2-Methyl-6-undecylpiperidine], for which the antiproliferative effect result in [1] is “anti-proliferative properties, although not as potent as solenopsin A itself; also recorded: clearly weaker than for the (−)- and (+)-solenopsin A”; in test [2], “anti-proliferative properties, although not as potent as solenopsin A itself; also recorded: clearly weaker than for the (−)- and (+)-solenopsin A”; in [3], “anti-proliferative properties, although not as potent as solenopsin A itself; also recorded: clearly weaker than for the (−)- and (+)-solenopsin A”. Moreover, the “oxygen consumption rate (OCR) compared to DMSO control” value in the test with UM-SCC1A cells is listed as “drastically reduced OCR”.
Take Ceramide: in the test on PTEN, the “amount of PTEN in the lipid raft fractions” value is reported as “higher amount of PTEN in the lipid raft fractions”.
With `CCCCCCCCCCCCCCCCCCCC1CC(C)CC(C)N1` (centres unmarked) [Compound S11, 2,4-Dimethyl-6-nonadecylpiperidine], the antiproliferative effect result in [1], in [2] and in test [3] was “no significant antiproliferative effect” each time. Further, the “effect on superoxide levels (DHE fluorescence)” value in the test with A375 cells is “no effect on superoxide levels”. In addition, the “oxygen consumption rate (OCR) compared to DMSO control” value in the test on UM-SCC1A cells is reported as “little change compared to the control”.
In the case of `CCCCCCCCCCCC1CCCC(C)N1` (centres unmarked) [Solenopsin, 2-methyl-6-nundecylpiperidine], the anti-angiogenic activity entry with angiogenesis was “anti-angiogenic activity”. Besides, the phosphoinositol-3 kinase entry in the test on phosphoinositol-3 kinase was “downregulated phosphoinositol-3 kinase”. In the test with Pseudomonas aeruginosa, the “quorum sensing in Pseudomonas aeruginosa” value is recorded as “blocks quorum sensing”.
